Literature values, collected in US8507466B2, “Oils enriched with diacylglycerols and phytosterol esters and unit dosage forms thereof for use in therapy” (Enzymotec Ltd., priority 2003, dated 2013).

What was measured:
[1] = tested on: tumor cell growth (LNCaP and HT-29); conditions: compared to cholesterol
[2] = tested on: LDL; conditions: incubation of LDL with copper ion

Compound: CC[C@H](CC[C@@H](C)[C@H]1CC[C@H]2[C@@H]3CC=C4C[C@@H](O)CC[C@]4(C)[C@H]3CC[C@]12C)C(C)C [beta-sitosterol]
- decrease in cell growth [1]: 24%
- increase in apoptosis [1]: 4 fold

Compound: CCCCC/C=C\C/C=C\CCCCCCCC(=O)O [linoleic acid (LA), linoleic acid]
- elevation of LDL oxidation [2]: 22%
